Assay results reported in patent US12637461B2, “Compounds for the activation of AMPK” (PFIZER INC., priority 2022, dated 2026).

Molecular target: T1, human AMPK α2β2γ3 (Homo sapiens, UniProt O43741+P54646+Q9UGI9)
T1 construct: expressed in transfected cells; host or cells: HEK293AD cells, MaxCyte bulk electroporation
Assay: Primary cellular assay: γ3 associated phospho-Thr172 AMPK detection (custom pAMPK Surefire AlphaLISA) in α2β2γ3 bulk transiently transfected HEK293 cells
Type: cell-based
Conditions: activation of human AMPK α2β2γ3 (γ3 pThr172 AMPK signal) in transiently transfected HEK293 cells, 20 minutes compound incubation; for Emax: 20 min, read-out: Assay GMean Asy. Max (%); for Emax / Assay GMean Asy. Max (%): geometric mean of the asymptotic max; for EC50: geometric mean EC50, read-out: Assay GMean EC50
Experimental: Primary Cellular Assay—γ3 Associated Phospho-Thr172 AMPK Detection in α2β2γ3 Bulk Transiently Transfected HEK293 Cells
The cellular potencies of the compounds were evaluated using a custom pAMPK Surefire AlphaLISA designed to assess γ3 associated phospho-Thr172 AMPK and modulation by small molecules in AMPK α2β2γ3 transiently transfected HEK293 cells.
A pAMPK Surefire AlphaLISA (PE-ASLU-PAMPK) assay available through Perkin Elmer was modified to selectively assess γ3 pThr172 AMPK content (as opposed to total pThr172 AMPK) by labeling a γ3 antibody with a CaptSure™ tag and substituting it for the total α1c/α2 AMPK labeled antibodies in the kit. In the modified assay, the overall abundance of γ3 AMPK is recognized by the CaptSure γ3 antibody and the phosphorylated AMPK is recognized by biotinylated pThr172 antibody. Subsequent reactivity with streptavitin donor beads and anti CaptSure conjugated acceptor beads brings the molecules into close proximity. Upon excitation at 680 nm, the donor bead converts ambient oxygen to a more excited singlet state which reacts with the acceptor bead and emits light at 520 to 620 nm. The intensity of the signal is proportional to the level of γ3 associated pThr172 AMPK phosphorylation.
In short, AMPK-α2+β2+γ3 MaxCyte bulk-transfected HEK293AD cells were thawed in growth media (DMEM High glucose+10% FBS) in a collagen-coated T150 flask and the cells were allowed to adhere and grow overnight in a 37° C. incubator. The following day, the cells were harvested and resuspended in plating medium (DMEM Low glucose+10% FBS) at a concentration of 100,000 cells per mL and 50 μL of this cell suspension was added to all wells of a 384-well plate using a Multidrop Combi. The cells were allowed to adhere and grow for 2 days in a 37° C. incubator. On assay day, compounds were diluted in 100% dimethyl sulfoxide (DMSO) in a 11 dose, half log dilution scheme and spotted in the cell plates at 1000× the final concentration. Compound incubations were performed in plating media for 20 minutes. Cells were washed with PBS, lysed and the signal was generated by subsequent additions of RB1 reagent from the kit, 1:1000 CaptSure γ3 labeled antibody in 1× immunoassay buffer, Anti-CaptSure acceptor beads and Streptavitin donor beads at final concentration of […]. The γ3 pThr172 AMPK signal was developed using EnVision™ multilabel reader (Perkin Elmer) using Alphascreen settings. The fluorescence emission was used to calculate the % effect relative to the HPE (30 μM) and ZPE (DMSO). EC50 curves were generated with the ActivityBase software using the XLfit model 205 to determine EC50 and Emax values.
For screening purposes, bulk AMPK-α2+β2+γ3 MaxCyte bulk transfection into HEK293AD cells were generated to support SAR screening as follows.
HEK293AD cells were seeded into 10 flasks at 2.7×10^7 cells per flask. The following day 12 mL of Trypl E dissociation reagent were added to each flask to lift the cells and the cells were then spun at 300×g for 5 minutes. Cells were washed once in MaxCyte EP buffer and then resuspended in MaxCyte EP buffer at 1×10^8 cells per mL. For transfection, 500×10^6 cells in 500 μl MaxCyte EP buffer were placed in a CL1.1 Processing Assembly (electroporation cell) with 1 mg/mL ([…]) of each of the plasmids pcDNA3.1(+)-human AMPK alpha 2, pcDNA3.1(+)-human AMPK beta 2 and pcDNA3.1(+)-human AMPK gamma 3 and the electroporation was carried out on the MaxCyte STX using the HEK293 electroporation protocol. Following electroporation, cells were transferred to a T175 flask containing growth medium (DMEM High glucose+10% FBS) and allowed to recover for 25 minutes, then the cells were resuspended to final volume of 900 mL and distributed into 6XT175 flasks and allowed to adhere and grow overnight in a 37° C. incubator. […]

T1 sequence (P54646 whole entry): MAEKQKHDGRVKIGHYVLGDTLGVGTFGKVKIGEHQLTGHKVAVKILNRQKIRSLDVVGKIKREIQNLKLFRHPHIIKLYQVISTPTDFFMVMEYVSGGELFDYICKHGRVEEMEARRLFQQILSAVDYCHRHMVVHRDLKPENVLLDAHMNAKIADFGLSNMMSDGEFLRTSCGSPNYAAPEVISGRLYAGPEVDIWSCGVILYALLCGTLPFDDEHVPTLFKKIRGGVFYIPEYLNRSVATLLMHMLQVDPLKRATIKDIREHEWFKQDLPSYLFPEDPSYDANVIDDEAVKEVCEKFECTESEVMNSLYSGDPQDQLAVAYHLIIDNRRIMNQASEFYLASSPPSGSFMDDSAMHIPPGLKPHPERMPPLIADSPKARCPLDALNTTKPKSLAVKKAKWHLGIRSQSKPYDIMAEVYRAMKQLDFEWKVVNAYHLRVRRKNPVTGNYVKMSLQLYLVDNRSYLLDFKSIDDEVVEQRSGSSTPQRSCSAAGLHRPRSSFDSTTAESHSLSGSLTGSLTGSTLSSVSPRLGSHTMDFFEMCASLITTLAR
T1 sequence (O43741 whole entry): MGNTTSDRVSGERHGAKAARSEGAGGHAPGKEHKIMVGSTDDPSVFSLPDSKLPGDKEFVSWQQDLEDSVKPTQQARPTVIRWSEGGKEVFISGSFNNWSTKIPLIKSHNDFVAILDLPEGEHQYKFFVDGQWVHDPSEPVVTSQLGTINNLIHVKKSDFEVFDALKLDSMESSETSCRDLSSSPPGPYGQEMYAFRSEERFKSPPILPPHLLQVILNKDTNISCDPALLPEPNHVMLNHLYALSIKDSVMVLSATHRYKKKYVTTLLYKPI
T1 sequence (Q9UGI9 whole entry): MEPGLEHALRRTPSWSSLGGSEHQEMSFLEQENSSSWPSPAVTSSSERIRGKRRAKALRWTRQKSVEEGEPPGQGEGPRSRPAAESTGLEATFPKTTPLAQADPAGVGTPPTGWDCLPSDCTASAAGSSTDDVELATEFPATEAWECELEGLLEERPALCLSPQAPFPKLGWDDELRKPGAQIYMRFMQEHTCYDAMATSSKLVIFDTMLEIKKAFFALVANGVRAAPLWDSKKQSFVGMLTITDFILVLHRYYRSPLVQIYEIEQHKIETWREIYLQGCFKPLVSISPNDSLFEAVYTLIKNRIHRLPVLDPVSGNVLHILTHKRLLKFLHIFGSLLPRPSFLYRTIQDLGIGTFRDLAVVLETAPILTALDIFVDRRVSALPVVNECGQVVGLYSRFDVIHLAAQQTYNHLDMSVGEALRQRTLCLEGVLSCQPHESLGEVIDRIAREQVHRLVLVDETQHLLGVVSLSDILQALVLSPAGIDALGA

Row | Emax | EC50 | Assay GMean Asy. Max (%) | Structure (SMILES)
1 | 129% | 39.9 nM | – | Cn1cc(F)c(N2C[C@](C)(c3cccc(Cl)c3F)c3c(cnc(NC4CN(CC(=O)N(CC(F)(F)F)C5CC5)C4)c3F)C2=O)n1 [compound 74, 2-(3-{[(5R)-5-(3-chloro-2-fluorophenyl)-4-fluoro-7-(4-fluoro-1-methyl-1H-pyrazol-3-yl)-5-methyl-8-oxo-5,6,7,8-tetrahydro-2,7-naphthyridin-3-yl]amino}azetidin-1-yl)-N-cyclopropyl-N-(2,2,2-trifluoroethyl)acetamide]
2 | 77.9% | 43.5 nM | – | Cn1cc(F)c(N2C[C@](C)(c3cccc(Cl)c3F)c3c(cnc(NC4CN(C(=O)CN5CCCC5)C4)c3F)C2=O)n1 [Example 12, (4R)-4-(3-Chloro-2-fluorophenyl)-5-fluoro-2-(4-fluoro-1-methyl-1H-pyrazol-3-yl)-4-methyl-6-({1-[(pyrrolidin-1-γ1)acetyl]azetidin-3-yl}amino)-3,4-dihydro-2,7-naphthyridin-1(2H)-one]
3 | – | 60.5 nM | 85.5% | Cn1cc(F)c(N2C[C@](C)(c3cccc(Cl)c3F)c3c(cnc(NC4CN(C(=O)C5CCC(F)(F)CN5)C4)c3F)C2=O)n1 (single isomer, unassigned) [compound 96]
4 | 63.2% | 49.1 nM | – | CNc1ccc(N2C[C@](C)(c3cccc(Cl)c3F)c3c(cnc(NC4CN(C(=O)[C@@H]5C[C@@H]5F)C4)c3F)C2=O)nc1 [compound 51, (4R)-4-(3-chloro-2-fluorophenyl)-5-fluoro-6-({1-[(1S,2S)-2-fluorocyclopropane-1-carbonyl]azetidin-3-yl}amino)-4-methyl-2-[5-(methylamino)pyridin-2-yl]-3,4-dihydro-2,7-naphthyridin-1(2H)-one]
5 | 76.2% | 59.1 nM | – | Cn1cc(F)c(N2C[C@](C)(c3cccc(Cl)c3F)c3c(cnc(NC4CN(C(=O)C(O)C5CC5)C4)c3F)C2=O)n1 (single isomer, unassigned) [compound 42]
6 | 51.4% | 25.9 nM | – | CC1(c2ccc(F)c(Cl)c2F)CN(c2ccc(N)cn2)C(=O)c2cnc(NC3CN(C(=O)[C@@H]4C[C@@H]4F)C3)c(F)c21 (single isomer, unassigned) [compound 102]
7 | 134% | 52.1 nM | – | COCCN(C(=O)CN1CC(Nc2ncc3c(c2F)[C@@](C)(c2cccc(Cl)c2F)CN(c2nn(C)cc2F)C3=O)C1)C1CC1 [compound 75, 2-(3-{[(5R)-5-(3-chloro-2-fluorophenyl)-4-fluoro-7-(4-fluoro-1-methyl-1H-pyrazol-3-yl)-5-methyl-8-oxo-5,6,7,8-tetrahydro-2,7-naphthyridin-3-yl]amino}azetidin-1-yl)-N-cyclopropyl-N-(2-methoxyethyl)acetamide]
8 | 120% | 147 nM | – | CN(C)C(=O)CN1CC(Nc2ccc3c(c2F)C(C)(c2cccc(Cl)c2F)CN(c2nn(C)cc2F)C3=O)C1 (stereo not shown) [compound 90, 2-(3-{[4-(3-chloro-2-fluorophenyl)-5-fluoro-2-(4-fluoro-1-methyl-1H-pyrazol-3-yl)-4-methyl-1-oxo-1,2,3,4-tetrahydroisoquinolin-6-yl]amino}azetidin-1-yl)-N,N-dimethylacetamide, from P18 (ENANT-2)]
9 | 99.7% | 168 nM | – | Cn1cc(F)c(N2CC(C)(c3cccc(Cl)c3F)c3c(ccc(NC4CN(CC(=O)N5CCOCC5)C4)c3F)C2=O)n1 (stereo not shown) [compound 91, 4-(3-chloro-2-fluorophenyl)-5-fluoro-2-(4-fluoro-1-methyl-1H-pyrazol-3-yl)-4-methyl-6-({1-[2-(morpholin-4-yl)-2-oxoethyl]azetidin-3-yl}amino)-3,4-dihydroisoquinolin-1(2H)-one,from P18 (ENANT-2)]
10 | – | 150 nM | 25.8% | Cn1cnc(N2C[C@](C)(c3cccc(Cl)c3F)c3c(cnc(NC4CN(C(=O)C5CC5C(F)(F)F)C4)c3F)C2=O)c1 (single isomer, unassigned) [compound 97]
11 | 217% | 146 nM | – | CN(C)c1nc(NC2CN(C(=O)C3(O)CC3)C2)nc2c1C(=O)N(c1ncccc1F)CC2(C)c1cccc(Cl)c1F (single isomer, unassigned) [Example 38, 8-(3-Chloro-2-fluorophenyl)-4-(dimethylamino)-6-(3-fluoropyridin-2-yl)-2-{[1-(1-hydroxycyclopropane-1-carbonyl)azetidin-3-yl]amino}-8-methyl-7,8-dihydropyrido[4,3-d]pyrimidin-5(6H)-one]
12 | 148% | 152 nM | – | CC1(c2cccc(Cl)c2F)CN(c2ncccc2F)C(=O)c2cnc(NC3CN(C(=O)N4CC5CC4C5)C3)nc21 (stereo not shown) [compound 89, 2-{[1-(2-azabicyclo[2.1.1]hexane-2-carbonyl)azetidin-3-yl]amino}-8-(3-chloro-2-fluorophenyl)-6-(3-fluoropyridin-2-yl)-8-methyl-7,8-dihydropyrido[4,3-d]pyrimidin-5(6H)-one,from P13 (ENANT-2)]
13 | 110% | 221 nM | – | CC1(c2cccc(Cl)c2F)CN(c2ccc(N)cn2)C(=O)c2cnc(NC3CN(C(=O)[C@@H]4C[C@@H]4F)C3)nc21 (single isomer, unassigned) [Example 31]
14 | 123% | 144 nM | – | Cn1cc(F)c(N2C[C@](C)(c3cccc(Cl)c3F)c3c(cnc(NC4CN(C(=O)C5(O)CCC5)C4)c3F)C2=O)n1 [Example 7, (4R)-4-(3-Chloro-2-fluorophenyl)-5-fluoro-2-(4-fluoro-1-methyl-1H-pyrazol-3-yl)-6-{[1-(1-hydroxycyclobutane-1-carbonyl)azetidin-3-yl]amino}-4-methyl-3,4-dihydro-2,7-naphthyridin-1(2H)-one]
15 | 139% | 19.8 nM | – | CN1CCCC(N2CC(Nc3ncc4c(c3F)[C@@](C)(c3cccc(Cl)c3F)CN(c3nn(C)cc3F)C4=O)C2)C1=O (single isomer, unassigned) [compound 71]
16 | 96.5% | 149 nM | – | Cn1cc(F)c(N2CC(C)(c3cccc(Cl)c3F)c3c(ccc(NC4CN(C5CCCNC5=O)C4)c3F)C2=O)n1 (stereo not shown) [Example 36, 4-(3-Chloro-2-fluorophenyl)-5-fluoro-2-(4-fluoro-1-methyl-1H-pyrazol-3-yl)-4-methyl-6-{[1-(2-oxopiperidin-3-γ1)azetidin-3-yl]amino}-3,4-dihydroisoquinolin-1(2H)-one]
17 | – | 66.4 nM | 100% | Cn1cc(F)c(N2C[C@](C)(c3cccc(Cl)c3F)c3c(cnc(NC4CN(C(=O)C(O)CC(F)(F)F)C4)c3F)C2=O)n1 (single isomer, unassigned) [compound 45]
18 | 78% | 125 nM | – | Cn1cc(F)c(N2C[C@](C)(c3cccc(Cl)c3F)c3c(cnc(NC4CN(C(=O)C5CCC(F)(F)CN5)C4)c3F)C2=O)n1 (single isomer, unassigned) [compound 95]
19 | 91.4% | 28.1 nM | – | Cn1cc(F)c(N2CC(C)(c3ccc(F)c(Cl)c3F)c3c(cnc(NC4CN(C(=O)[C@@H]5C[C@@H]5F)C4)c3F)C2=O)n1 (single isomer, unassigned) [Example 23]
20 | 120% | 144 nM | – | C[C@]1(c2cccc(Cl)c2F)CN(c2ccc([C@@H]3COCCN3)cn2)C(=O)c2cnc(NC3CN(C(=O)c4cccnn4)C3)c(F)c21 (single isomer, unassigned) [Example 17]
